Source: PMC6739424, “Osh Proteins Control Nanoscale Lipid Organization Necessary for PI(4,5)P2 Synthesis” (Molecular Cell, 2019)

Target: T1, zPIP5K (zebrafish PIP5K1A, zPIP5K1Aα) (Danio rerio, UniProt Q503I3)
T1 construct: gene pip5k1aa; kinase domain aa 49-431, His-tagged (pET21b+), E. coli
Test: real-time liposome assay with NBD-PHPLCδ PI([…])P2 sensor
Type: biochemical
Conditions: ATP 80 uM, 2 mM MgCl2, pH 7.5; liposomes without PS or sterol; allosteric sigmoidal fit

T1 sequence (Q503I3 49-431): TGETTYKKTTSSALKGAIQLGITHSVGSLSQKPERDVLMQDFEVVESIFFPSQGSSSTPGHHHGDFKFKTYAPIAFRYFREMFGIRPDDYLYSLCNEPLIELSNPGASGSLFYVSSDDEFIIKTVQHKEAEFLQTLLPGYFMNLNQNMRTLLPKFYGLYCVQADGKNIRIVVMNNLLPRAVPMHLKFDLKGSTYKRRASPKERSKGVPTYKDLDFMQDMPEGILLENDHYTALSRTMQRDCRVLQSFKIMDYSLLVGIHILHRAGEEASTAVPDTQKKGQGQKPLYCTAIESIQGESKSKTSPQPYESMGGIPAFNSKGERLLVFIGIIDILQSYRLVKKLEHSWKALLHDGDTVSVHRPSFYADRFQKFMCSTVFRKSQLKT

- apparent Km: 6.2 mol%
Substance: L-α-phosphatidylinositol-4-phosphate [bPI4P]
